Patent EP2420842A1, “In vivo imaging of calcified lesions” (Rheinisch-Westfälische Technische Hochschule Aachen (RWTH), priority 2010, dated 2012)

Key:
calcifications [1] = assay: Explanted organ fluorescence, 2D reflectance imaging and ROI quantification after co-injection of both probes; assay type: in vivo, DBA/2 mice
calcifications [2] = assay: In vivo whole body fluorescence, 2D mode (FMT instrument); parameters: species or system DBA/2 mice; conditions: standard sensitivity settings
Description: (§1) We used the FMT™ 2500 instrument from VisEn Medical Inc. (Bedford, MA). Mice were anesthetized with Isofluran (1.5% air 2L/min), depilated in the scanning area and a background measurement was taken for both wavelengths (680 nm and 750 nm). After this procedure the animals received both OsteoSense 750® (2 nmol in a volume of 150 µl) and Fetuin-A Alexa 680 (50 µl of a 7mg/ml solution) by intraperitoneal injection. 24 h after this application, the mice were analyzed in the FMT again and the fluorescence intensity was detected. Reconstruction of the data was performed by VisEn software.

calcifications [3] = assay: In vivo 3D fluorescence molecular tomography of whole mice; parameters: species or system DBA/2 mice
Description: as §1

calcifications [4] = assay: Combined fluorescence molecular tomography and micro computed tomography (CT-FMT fusion); assay type: in vivo, mice
Description: A dual energy µCT for small animals (TomoScope DUO, CT-Imaging, Erlangen, Germany) was used for anatomical image acquisition. The two electron tubes were both run at energies of 65KV. Each flat panel detector acquired 720 projections at 5 fps, containing 1032x1012 pixels with a pixel size of (50µm)^2. A full rotation was performed and the scan time was 90 seconds per subscan covering 30.8 mm in the transversal direction. Two subscans were acquired to cover almost the entire mouse body. A Feldkamp algorithm was used for reconstruction with isotropic voxel size of […], dimensions of 600x500x440, field of view of 42mm x 35mm x 30.8mm and a soft reconstruction kernel (T10).
The FMT probe was injected 24 hours before imaging through i.v. tail vein injection. Hair was removed with depilatory crème around the region of interest. For preparations and imaging, mice were anesthetized with Isofluran. […]
The reconstructed 3D data sets from CT and FMT were fused by computing a rigid body transformation minimizing the residual error between fiducial markers detected in both modalities. […] The average number of markers that were found in both modalities was 12 with average fiducial error of 0.174mm, which was evaluated on a representative set of 31 scans. […]

calcified lesions = assay: Histology: staining of calcified lesions with unlabelled or Alexa Fluor 488 labelled fetuin-A (injected or applied to sections); assay type: in vivo, fetuin-A deficient mice
Description: The mice were injected with unlabelled or Alexa Fluor® 488 coupled fetuin-A. They received 100 µl / 25 g body weight of a 7 mg/ml solution. Five hours after injection the mice were killed, organs were harvested, embedded in TissueTek (Sakura), and snap-frozen and in liquid nitrogen. Serial cryotome sections were prepared and fixed in ice cold acetone. For general histology hematoxilin/eosin staining and von-Kossa staining were performed.
To localize unlabelled fetuin-A, sections were incubated for one hour with a homemade polyclonal rabbit anti bovine fetuin-A antibody followed by secondary goat anti rabbit Alexa Fluor® 546 antibody and DAPI staining. To localize calcified lesions, sections were incubated with Alexa Fluor® 488-coupled fetuin-A for one hour and then were counterstained with DAPI. Sections of organs from mice injected with Alexa Fluor® 488 labelled Fetuin A were stained with DAPI only.

Molecule	combined signal from regions of interest (ROI), kidneys (calcifications [1]; Fetuin-A-/- mice, kidneys)	combined signal from regions of interest (ROI), lungs (calcifications [1]; Fetuin-A-/- mice, lungs)	staining of heart (explanted organ) (calcifications [1]; fetuin-A deficient mice)	staining of brown fat, lungs and kidneys (explanted organs) (calcifications [1]; fetuin-A deficient mice, heavily calcified organs)	tissue accumulation, Fetuin-A-/- versus wildtype, kidneys (calcifications [1]; kidneys)	tissue accumulation, Fetuin-A-/- versus wildtype, lungs (calcifications [1]; lungs)	signal (2D reflectance images) (calcifications [1]; tissues (brown fat, heart, lung, kidneys) from wildtype mice, OsteoSense at both 1-fold and 10-fold sensitivity setting)	combined signal from regions of interest (ROI), kidneys (calcifications [1]; wildtype mice, kidneys)	combined signal from regions of interest (ROI), lungs (calcifications [1]; wildtype mice, lungs)	whole body 2D scan signal (calcifications [2]; D2, Fetuin-A+/+ wildtype mice)	whole body 2D scan signal (calcifications [2]; D2, Fetuin-A-/- mice)	3D fluorescence tomography staining pattern (calcifications [3]; DBA/2 wildtype mouse (Fig. 6A, B))	excretion route (staining of the digestive tract, signal associated with faeces) (calcifications [3]; digestive tract)	3D fluorescence tomography signal (calcifications [3]; fetuin-A deficient (knockout) mouse (Fig. 6D))	3D fluorescence signal strength (calcifications [3]; wildtype and knockout animal (Fig. 6A, C), higher in wildtype than in knockout)	CT-FMT fused signal localization (calcifications [4]; D2, fetuin-A+/+ wildtype mice)	CT-FMT fused signal localization (calcifications [4]; D2, fetuin-A-/- mice)	lesion size detected compared with established histology methods (H/E, von Kossa) (calcified lesions; Fig. 1, injected into live animals or applied to histological sections)	detection of lesions in serial sections of the heart (calcified lesions; Fig. 2, fetuin-A deficient mouse, compared with Hematoxylin-Eosin and von Kossa)	staining of calcified lesions (calcified lesions; fetuin-A deficient mice, both in vivo (injected) and on sections)
Fetuin-A Alexa 680: Fetuin-A monomer (Sigma Aldrich, F2379), purified by gel chromatography, coupled to Alexa Fluor® 680 dye	6740 counts/energy	3303 counts/energy	stained weakly	strongly stained	increased over six-fold	almost doubled	0.25 Count/Energy	1025 counts/energy	1816 counts/energy	no signal	strong signals	outlined the gut, kidneys and the brown fat pad in the neck	at least partially excreted through this route	highly detected in the neck and in the left kidney but also in the gut	much higher	low signal in the digestive tract	faint signal in the neck and the thorax, but a higher one in the kidney and the digestive tract	–	–	–
Alexa Fluor® 488-labelled fetuin-A: Fetuin-A monomer (Sigma Aldrich, F2379), purified by gel chromatography, coupled to Alexa Fluor® 488 dye (conjugate, UniProt P12763 19-359, looked up, Alexa Fluor 488 dye, Fetuin-A monomer (Sigma Aldrich, F2379), purified by gel chromatography, coupled to Alexa Fluor® 488 dye) Alpha-2-HS-glycoprotein: IPLDPVAGYKEPACDDPDTEQAALAAVDYINKHLPRGYKHTLNQIDSVKVWPRRPTGEVYDIEIDTLETTCHVLDPTPLANCSVRQQTQHAVEGDCDIHVLKQDGQFSVLFTKCDSSPDSAEDVRKLCPDCPLLAPLNDSRVVHAVEVALATFNAESNGSYLQLVEISRAQFVPLPVSVSVEFAVAATDCIAKEVVDPTKCNLLAEKQYGFCKGSVIQKALGGEDVRVTCTLFQTQPVIPQPQPDGAEAEAPSAVPDAAGPTPSAAGPPVASVVVGPSVVAVPLPLHRAHYDLRHTFSGVASVESSSGEAFHVGKTPIVGQPSIPGGPVRLCPGRIRYFKI	–	–	–	–	–	–	–	–	–	–	–	–	–	–	–	–	–	also detected much smaller lesions	enabled the detection of an additional very small lesion	readily stained calcified lesions
